Test results taken from PMC12785583, “Coconut Milk-Derived Bioactive Peptides as Multifunctional Agents Against Hyperglycemia, Oxidative Stress, and Glycation: An Integrated Experimental and Computational Study” (International Journal of Molecular Sciences, 2025).
Read-outs that look alike come from different tables or passages of the source. Ends that are not written are not given here.

Assays:
α-glucosidase = molecular target: α-glucosidase; parameters: method as in PMID 31139399; conditions: soy protein-derived peptides; cited from earlier work
[1] = molecular target: T1, porcine pancreatic α-amylase (Sus scrofa, UniProt P00690); assay: α-amylase inhibition assay; type: biochemical
T1 construct: purchased SRL (Sisco Research Laboratories)
T1 sequence (P00690 16-511): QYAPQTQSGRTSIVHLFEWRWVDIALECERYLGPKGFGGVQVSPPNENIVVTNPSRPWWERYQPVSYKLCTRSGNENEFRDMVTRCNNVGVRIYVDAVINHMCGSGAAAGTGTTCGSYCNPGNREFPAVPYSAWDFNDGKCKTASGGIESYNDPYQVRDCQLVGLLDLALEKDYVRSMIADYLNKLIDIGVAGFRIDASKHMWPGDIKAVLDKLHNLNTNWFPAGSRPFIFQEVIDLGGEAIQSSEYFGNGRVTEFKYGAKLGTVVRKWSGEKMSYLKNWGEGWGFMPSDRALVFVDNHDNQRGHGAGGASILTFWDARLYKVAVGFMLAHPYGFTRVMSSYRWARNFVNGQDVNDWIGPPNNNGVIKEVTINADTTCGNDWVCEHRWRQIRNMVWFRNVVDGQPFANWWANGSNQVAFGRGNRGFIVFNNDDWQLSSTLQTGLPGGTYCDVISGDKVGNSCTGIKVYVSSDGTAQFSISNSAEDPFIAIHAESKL
Protocol: The enzymatic reaction was initiated by adding the starch substrate and allowed to proceed for 15 min. The reaction was then terminated by adding the 3,5-dinitrosalicylic acid (DNSA) reagent, and the mixture was heated to boiling for 5 min. […] IC50 values were obtained from plots of percentage inhibition versus sample concentration.

human erythrocytes = assay: hemolytic assay; type: cell-based
Protocol: The hemolytic potential of the lead peptides was determined following an established erythrocyte hemolysis protocol. In brief, 15 mL of venous blood was drawn from a healthy individual, centrifuged at 3000 rpm for 10 min, and the plasma was discarded. The residual pellet (RBCs) was washed 3 times with PBS (pH 7.4, 0.1 M), and the resultant pellet was resuspended in PBS in a 1:10 ratio. Subsequently, 0.9 mL of the RBC suspension was incubated with 0.1 mL of peptides at various concentrations, a negative control (100 μL PBS + 900 μL RBC suspension), and a positive control (100 μL of 0.5% Triton-X-100 + 900 μL of RBC suspension), and incubated at 37 °C for 24 h. Post incubation, all tubes were centrifuged at 3000 rpm for 10 min. 0.1 mL of the supernatant was then transferred to 96-well plates, and the absorbance of the supernatant was read at 540 nm. […] The corrected values were calculated as Acontrol=Apos−Aneg and Asample=Atest−Aneg where Apos , Aneg and Atest are the absorbance values of the positive control, negative control, and peptide-treated sample (given concentration), respectively.

aldose reductase = aldose reductase (Homo sapiens, UniProt P15121); assay: aldose reductase inhibition assay; type: biochemical
Protocol: The aldose reductase inhibition assay was performed according to the method described by Alharbi et al.. Briefly, a 1 mL reaction mixture comprised 0.87 mL of 100 mM Sodium phosphate buffer (pH 6.2), 0.05 mL of 3 mM NADPH, 0.01 mL of human aldose reductase (recombinant, 0.2 U/mL), with the enzyme’s activity being 0.2 IU/mL, and 0.02 mL of test compounds (designated as peptide 1 and peptide 2) at different concentrations. 0.05 mL of the substrate (DL-glyceraldehyde, five mM) was incubated in the reaction mixture for 3 min at 25 °C. Enzyme activity was determined by measuring the reduction in NADPH absorption at 340 nm over 10 min. […] Aldose reductase inhibitory activity was expressed as the percentage of inhibition.

[2] = within 24 h at 5 mg/mL; cited from earlier work
[3] = cited from earlier work

In the case of “LPLPVLK [soy protein-derived peptide, literature]”, the IC50 (α-glucosidase) is given as 237.4 ± 0.52 µM.

With MQIFVK [Peptide 1, MQIFVK] the IC50 ([1]; mean ± SD, read-out: α-Amylase Inhibition IC50 (converted)) was 115 µM, the IC50 ([1]; read-out: α-Amylase Inhibition IC50 (value in bracket) (converted)) was 115 µM and the “Hemolytic Assay (HC50)” value (human erythrocytes) was 220.85 ± 0.20 µg/mL. The “Hemolytic Assay (HC50) (value in bracket)” value (human erythrocytes; red cells of human, 24 h) was 288.70 µM, the IC50 (aldose reductase; mean ± SD, read-out: Aldose Reductase Inhibition IC50 (converted)) was 29.4 µM and the IC50 (aldose reductase; read-out: Aldose Reductase Inhibition IC50 (value in bracket) (converted)) was 29.4 µM.

For SWLRL, the IC50 (α-glucosidase) is given as 182.1 ± 0.74 µM.

With Triton-X-100 [reference compound] the “Hemolytic Assay (HC50)” value (human erythrocytes; human RBC, 37 °C, 24 h) was 105.25 ± 0.17 µg/mL, the “Hemolytic Assay (HC50) (value in bracket)” value (human erythrocytes; human RBC, 37 °C, 24 h) was 162.67 µM and the “Hemolytic Assay (HC50)” value (human erythrocytes; human RBC, 37 °C, 24 h, listed as Triton X-100) was 105.25 µg/mL.

In the case of “VVFPGCPE [Ginkgo biloba peptide, literature]”, the methylglyoxal scavenging [2] is listed as “up to 66.50%”.

For WLRL, the IC50 (α-glucosidase) is given as 162.3 ± 0.74 µM.

For YFYPEL, the superoxide scavenging activity [3] is given as 65.8 µg/mL and the EC50 ([3]; read-out: superoxide scavenging activity (value in bracket)) is given as 79.2 µM.
